Where “and” joins values, the source holds several entries; their conditions need not be identical. Equal entries are not always repeated.
Experiments:
[1] = Remote loading efficiency of small molecules into liposomes (PD-10 size exclusion, HPLC); format: physicochemical; conditions: mean (SD), n = 2
Protocol: A solution of the small molecule (modified TLR agonist) was lyophilized in a vial equipped with a magnetic stir bar over night to form a fluffy white powder. This powder was added either formulation F1 or F2 to the wanted drug/lipid ratio. The resulting mixture was stirred at 55° C. or 41° C. for formulation F1 and F2 respectively for 3h, then allowed to cool to rt before the solutions were refrigerated and stored at 4° C.
Remote loading efficiency was determined at 1 h and 3 h by taking out 100 μL of the mixture and applying this and 900 μL buffer (25 mM HEPES, 10 vol % sucrose buffer, pH 7.4) to a PD-10 column size exclusion column. Following, 10×1 mL fractions were collected, and the small molecule compound concentrations in the loading mixture and in the liposome containing fractions were determined on analytical HPLC. Loading efficiency was calculated as percentage of molecules found in liposome containing fractions out of the applied amount. The general procedure for the small molecule remote loading is visualized in FIG. 3. The general concept of remote loading imidazoquinolines in liposomes that are dialyzed against HEPES is visualized in FIG. 4.

[2] = molecular target: T1, mTLR7 (Mus musculus, UniProt P58681); assay: NF-κB induction in HEK-Blue mTLR7 reporter cells; format: cell-based; conditions: free compounds, 16 h
T1 construct: host or cells: HEK-Blue (HEK293-derived) reporter cells
T1 sequence (P58681 27-1050): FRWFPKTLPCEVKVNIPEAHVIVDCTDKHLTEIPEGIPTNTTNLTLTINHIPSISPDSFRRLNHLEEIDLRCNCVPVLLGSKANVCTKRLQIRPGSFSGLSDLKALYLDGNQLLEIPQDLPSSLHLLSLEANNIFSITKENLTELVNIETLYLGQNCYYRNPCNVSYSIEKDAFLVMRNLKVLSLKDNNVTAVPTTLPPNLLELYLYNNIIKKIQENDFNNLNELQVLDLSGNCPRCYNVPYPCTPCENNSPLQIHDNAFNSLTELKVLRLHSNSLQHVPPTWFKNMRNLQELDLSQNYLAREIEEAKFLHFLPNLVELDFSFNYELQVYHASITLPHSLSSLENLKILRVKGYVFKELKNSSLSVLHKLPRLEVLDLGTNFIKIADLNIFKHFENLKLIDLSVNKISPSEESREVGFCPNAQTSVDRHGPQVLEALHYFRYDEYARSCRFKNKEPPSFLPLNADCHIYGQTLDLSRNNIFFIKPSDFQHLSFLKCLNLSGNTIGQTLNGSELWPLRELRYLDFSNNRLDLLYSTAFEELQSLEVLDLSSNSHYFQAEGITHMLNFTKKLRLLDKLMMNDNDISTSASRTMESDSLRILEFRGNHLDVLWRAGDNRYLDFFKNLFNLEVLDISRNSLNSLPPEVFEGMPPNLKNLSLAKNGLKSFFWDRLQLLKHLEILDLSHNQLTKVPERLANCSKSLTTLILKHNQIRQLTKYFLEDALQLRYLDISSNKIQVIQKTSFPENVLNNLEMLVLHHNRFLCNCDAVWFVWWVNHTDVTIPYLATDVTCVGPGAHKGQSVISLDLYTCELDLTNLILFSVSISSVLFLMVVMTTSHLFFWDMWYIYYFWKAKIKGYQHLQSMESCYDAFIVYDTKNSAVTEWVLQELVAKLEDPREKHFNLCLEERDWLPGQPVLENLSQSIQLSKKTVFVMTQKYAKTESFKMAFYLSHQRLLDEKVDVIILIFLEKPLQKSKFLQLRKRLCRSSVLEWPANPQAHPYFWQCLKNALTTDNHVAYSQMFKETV
From the text: This example describes the general procedure used to assess the compounds' potency to induce NF-κB expression in human embryonic kidney (HEK) cells. The transcription factor NF-κB is expressed upon stimulation of TLR7/8 and is commonly used for quantifying TLR7/8 agonist potencies in reporter cell assays. Conversely, we used HEK-Blue mTLR-7 cells to evaluate the potencies of the synthesized derivatives, as previously reported (Shukla et al, J. Med. Chem. (2010), 53, 4450-4465).
HEK-Blue TLR7 assays were carried out using HEK-Blue™ mTLR7 cells (Invivogen, Toulouse, France, Cat. #hkb-mtlr7). The assays were carried out according to the protocol from Invivogen. TLR expressing cells were cultured in DMEM high glucose (4.5 g/L) supplemented with 10% (v/v) fetal bovine serum (FBS) and 1% (v/v) penicillin-streptomycin (P/S) to 50 U/ml penicillin and […] streptomycin. On the day of the study, the cells were seeded in a 96-well plate (ThermoFisher Scientific, Roskilde, Denmark) with 20 μL imidazoquinoline TLR7/8 agonist solutions per well at varying concentrations by adding 180 μL cell suspension, made by suspending cells to 0.22×10^6 cells per mL in HEK-Blue™ Detection medium (Invivogen, Cat. #hb-det2) added Blasticidin (10 μg/ml) and Zeocin™ (100 μg/ml), leading to a final concentration of 40×10^3 cells per well in triplicates. Cells were incubated with the imidazoquinoline TLR7/8 agonists, formulated in liposomes or dissolved in PBS, at 37° C. with 5% CO2 for 16 h. The response was quantified spectrophotometrically at 655 nm and was normalized to the signal from a blank sample (DMSO dilution) run in parallel.

[3] = test system: RAW-Blue cells; assay: NF-κB induction in RAW-Blue reporter cells (RAW 264.7 macrophages, SEAP); format: cell-based; conditions: for EC50: RAW-Blue, sigmoidal 4PL fitting, 24 h; for Potency in the RAW-Blue cell assay: compared with R848
From the text: This example describes the general procedure used to assess the compounds' potency to induce NF-κB expression in RAW 264.7 macrophages cells that stably express secreted embryonic alkaline phosphatase (SEAP) upon induction of NF-κB. RAW-Blue™ reporter cells are commonly used for quantifying TLR7/8 agonist potencies in reporter cell assays. Conversely, we used RAW-Blue™ cells to evaluate the potencies of the synthesized derivatives, as previously reported^1. ^1 Ryu et al, J. Am. Chem. Soc. (2014), 136, 10823-10825
RAW 264.7 assays were carried out using RAW-Blue™ cells and QUANTI-Blue™ detection solution (Invivogen, Toulouse, France, at. #raw-sp and rep-qbs respectively). The assays carried out according to the protocol from Invivogen. RAW 264.7 macrophages were cultured in DMEM high glucose (4.5 g/L) supplemented with 10% (v/v) FBS, 1% (v/v) P/S, and Normocin™ (100 μg/ml). On the day of the study, the cells were seeded in a 96-well plate (ThermoFisher Scientific, Roskilde, Denmark) with 20 μL TLR7/8 agonist solutions per well at varying concentrations by adding 180 μL cell suspension, made by suspending cells to 0.55×10^6 cells per mL in the prepared cell medium added Zeocin™ (200 μg/ml), leading to a final concentration of 100×10^3 cells per well in triplicates. Cells were incubated with the TLR7/8 agonists, diluted from 10 mM DMSO stocks in PBS, at 37° C. with 5% CO2 for 24 h for SEAP production. 50 μL SEAP containing cell supernatant from each well was added 150 μL QUANTI-Blue™ detection solution and was incubated at 37° C. for 3-6 h. The resulting response was quantified spectrophotometrically at 640 nm and was normalized to the signal from a blank sample (DMSO dilution) run in parallel.
Half maximal effective concentration (EC50) values were determined from sigmoidal 4PL fittings from the resulting dose-response curves in GraphPad Prism.

[4] = formulation F3, drug/lipid ratio 0.10, 1 h
[5] = formulation F3, drug/lipid ratio 0.10, 3 h

Row | Compound | Remote loading efficiency 1 h (%) [1, 4] | Remote loading efficiency 3 h (%) [1, 5] | TLR7 agonist activity (NF-κB induction) [2] | EC50 [3] | Potency in the RAW-Blue cell assay [3] | Remote loading efficiency 1 h (%) ([1]; formulation F3, drug/lipid ratio 0.25, 1 h) | Remote loading efficiency 3 h (%) ([1]; formulation F3, drug/lipid ratio 0.25, 3 h) | Remote loading efficiency 1 h (%) ([1]; formulation F3, drug/lipid ratio 0.50, 1 h) | Remote loading efficiency 3 h (%) ([1]; formulation F3, drug/lipid ratio 0.50, 3 h)
1 | CCCCc1nc2c(N)nc3ccccc3c2n1Cc1ccc(CNC(=O)[C@@H]2CCCN2)cc1 [MK140, (S)—N-(4-((4-amino-2-butyl-1H-imidazo[4,5-c]quinolin-1-yl)methyl)benzyl)pyrrolidine-2-carboxamide] | 93.6 (0.1) % | 98.3 (3.4) % | potencies that were higher or comparable to that of R848 | 50 nM | greater potencies than R848 | – | – | – | –
2 | CCCCc1nc2c(N)nc3ccccc3c2n1Cc1ccc(CNC(=O)CN)cc1 [MK139, 2-amino-N-(4-((4-amino-2-butyl-1H-imidazo[4,5-c]quinolin-1-yl)methyl)benzyl)acetamide] | 84.7 (17.4) % | 90.6 (1.6) % | potencies that were higher or comparable to that of R848 | 340 nM | – | – | – | – | –
3 | CCCCc1nc2c(N)nc3ccccc3c2n1Cc1ccc(CNC(=O)[C@@H](N)CC(N)=O)cc1 [MK135, (S)-2-amino-N-(4-((4-amino-2-butyl-1H-imidazo [4,5-c]quinolin-1-yl)methyl)benzyl)succinamide] | 85.9 (4.7) % | 86.4 (5.1) % | the lowest potency of all derivatives | 420 nM | – | 55.5 (5.7) % | 65.0 (7.7) % | 19.5 (0.1) % | 23% and 23.3 (0.3) %
4 | CCCCc1nc2c(N)nc3ccccc3c2n1Cc1ccc(CNC(=O)[C@@H](N)C(C)C)cc1 [MK145, (S)-2-amino-N-(4-((4-amino-2-butyl-1H-imidazo[4,5-c]quinolin-1-yl)methyl)benzyl)-3-methylbutanamide] | 97.2 (4.0) % | 92.4 (3.9) % | potencies that were higher or comparable to that of R848 | 30 nM | the most potent compounds | – | – | – | –
5 | CCCCc1nc2c(N)nc3ccccc3c2n1Cc1ccc(CNC(=O)[C@@H](N)CCC(N)=O)cc1 [MK136, (S)-2-amino-N-(4-((4-amino-2-butyl-1H-imidazo[4,5-c]quinolin-1-yl)methyl)benzyl)pentanediamide] | 2.0 (0.2) % | 3.1 (0.4) % | the lowest potency of all derivatives | 740 nM | – | – | – | – | –
6 | CCCCc1nc2c(N)nc3ccccc3c2n1Cc1ccc(CNC(=O)[C@H](C)N)cc1 [MK137, (S)-2-amino-N-(4-((4-amino-2-butyl-1H-imidazo[4,5-c]quinolin-1-yl)methyl)benzyl)propanamide] | 98.1 (5.2) % | 99.1 (1.8) % | potencies that were higher or comparable to that of R848 | 40 nM | greater potencies than R848 | – | – | – | –
7 | CCCCc1nc2c(N)nc3ccccc3c2n1Cc1ccc(CNC(=O)[C@@H](N)[C@@H](C)CC)cc1 [MK146, (2S,3S)-2-amino-N-(4-((4-amino-2-butyl-1H-imidazo[4,5-c]quinolin-1-yl)methyl)benzyl)-3-methylpentanamide] | 94.1 (2.9) % | 88.4 (1.5) % | potencies that were higher or comparable to that of R848 | 40 nM | greater potencies than R848 | – | – | – | –
